Measured values published in patent US20250129135A1, “Multi-Agonist and Use Thereof” (priority 2021, published 2025).
Starred links: 1 amine or outer side, 2 acyl side, 3 side chain; linkers in the order of their positions; H or OH if unused. Non-standard residues stand in square brackets, D forms with d. Residues, ends and D or L forms follow the SMILES beside them. Groups on a side chain read outwards from the residue. *: point of attachment. C20 diacid = O=C(O)CCCCCCCCCCCCCCCCCCC(=O)*; αMePhe(2-F) = C[C@](N)(Cc1ccccc1F)C(=O)O; γGlu = O=C(O)[C@H](CCC(=O)[*:2])N[*:1]; αMeL = CC(C)C[C@](C)(N)C(=O)O; AEEA = NCCOCCOCC(=O)O; Aib = CC(C)(N)C(=O)O

What was measured:
[1] = test system: RIN-m5F cells; type: cell-based, rat; details: for Rel. A (Relative Activity) on RIN-m5F: relative to GLP-1(7-37)
Outline: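 cAMP production measured in RIN-m5F cells resuspended in HBSS; compounds incubated 60 min at room temperature, then detection reagent added for a further 60 min before read-out.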

[2] = Rat pharmacokinetics (PK) study; type: in vivo; details: sc, male SD rats, subcutaneous 30 nmol/kg, plasma
Method: 7˜9 weeks old male SD rats (220-250 g, 3 rats/group) were subjected to subcutaneous injection of 30 nmol/kg compound. After administration, blood was collected through the jugular vein at time points 0.25, 2, 4, 8, 12, 16, 24, 48, 96, 120, and 144 hours. The blood was processed to obtain plasma samples and analyzed using LC-MS/MS. The blood concentration time curve was analyzed using Phoenix WinNonlin version 6.3 software (non compartment model), and PK parameters and half-life were calculated.

[3] = test system: C57 BL/6J DIO mice; assay: In vivo pharmacodynamics in high-fat diet induced obesity (DIO) mice; design: species or system mouse; details: Mean±SEM; for LDL-C / TC (total cholesterol) / TG (plasma triglycerides) / Blood sugar (fasting blood glucose) / Insulin (blood): Day 15
Outline: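 DIO mice (60 kcal% fat diet) dosed subcutaneously in 1×PBS, 5 ml/kg, every three days for 15 days. Daily body weight and food intake as % change from baseline; day 15 fasting glucose, plasma TC, LDL-C, TG, insulin and liver TG. Mean±SEM, one-way ANOVA with Dunnett's versus vehicle.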

[4] = molecular target: Human GLP-1R (Homo sapiens, UniProt P43220); assay: cAMP (HTRF) activity in HEK-293 cells stably overexpressing human GLP-1 receptor; type: cell-based; design: expressed in transfected cells; host or cells: HEK-293; details: for Human GLP-1R Rel. A (Relative Activity): EC50 of human GLP-1 (7-37) / EC50 of compound; for EC50: stable transfected cell cAMP activity, at least 3 independent tests
Outline: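 Cells in HBSS are exposed to compound for 60 min at room temperature, followed by 60 min with detection reagent. EC50 (nM) is taken from concentration-response curves.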

[5] = test system: 3T3-L1 adipocytes; details: for Rel. A (Relative Activity) on 3T3-L1 adipocyte: relative to GIP
Outline: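 Mouse 3T3-L1 preadipocytes were differentiated with IBMX, dexamethasone and insulin for 5 days, then insulin plus 10 uM rosiglitazone for 3 days, then 10% FBS medium for 2–3 days. Mature adipocytes received 10-point, 3-fold compound dilutions for 60 min at room temperature. cAMP was read by kit detection reagent after a further 60 min, with concentration-effect curves fitted.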

Human GLP-1R, sequence (P43220 24-463): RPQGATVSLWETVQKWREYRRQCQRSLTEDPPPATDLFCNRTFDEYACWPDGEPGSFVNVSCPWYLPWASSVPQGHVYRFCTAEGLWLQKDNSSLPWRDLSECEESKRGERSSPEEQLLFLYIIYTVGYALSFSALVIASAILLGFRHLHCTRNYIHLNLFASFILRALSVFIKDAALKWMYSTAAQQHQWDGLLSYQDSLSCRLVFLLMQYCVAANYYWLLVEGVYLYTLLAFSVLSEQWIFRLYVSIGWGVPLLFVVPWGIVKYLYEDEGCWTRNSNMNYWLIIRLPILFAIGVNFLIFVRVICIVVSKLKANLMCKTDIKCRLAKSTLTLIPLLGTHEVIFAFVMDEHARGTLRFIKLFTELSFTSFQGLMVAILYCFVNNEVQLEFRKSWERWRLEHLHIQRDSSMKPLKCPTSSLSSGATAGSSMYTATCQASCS

For `CC[C@H](C)[C@H](NC(=O)[C@H](Cc1ccccc1)NC(=O)[C@H](C)NC(=O)C(C)(C)NC(=O)[C@H](CCC(N)=O)NC(=O)[C@H](C)NC(=O)[C@H](CCCCNC(=O)COCCOCCNC(=O)COCCOCCNC(=O)CC[C@H](NC(=O)CCCCCCCCCCCCCCCCCCC(=O)O)C(=O)O)NC(=O)[C@H](CCCCN)NC(=O)[C@H](CC(=O)O)NC(=O)[C@H](CC(C)C)NC(=O)[C@H](Cc1ccccc1)NC(=O)[C@@H](NC(=O)[C@H](CO)NC(=O)[C@H](Cc1ccc(O)cc1)NC(=O)[C@H](CC(=O)O)NC(=O)[C@H](CO)NC(=O)[C@@H](NC(=O)[C@](C)(Cc1ccccc1F)NC(=O)[C@@H](NC(=O)CNC(=O)[C@H](CCC(N)=O)NC(=O)C(C)(C)NC(=O)[C@@H](N)Cc1ccc(O)cc1)[C@@H](C)O)[C@@H](C)O)[C@@H](C)CC)C(=O)N[C@@H](CCC(=O)O)C(=O)N[C@@H](Cc1ccc(O)cc1)C(=O)N[C@@H](CC(C)C)C(=O)N[C@@H](CC(C)C)C(=O)N[C@@H](CCC(=O)O)C(=O)NC(C)(C)C(=O)N[C@@H](Cc1c[nH]cn1)C(=O)N1CCC[C@H]1C(=O)N[C@@H](CO)C(=O)N[C@@H](CO)C(=O)NCC(=O)N[C@@H](C)C(=O)N1CCC[C@H]1C(=O)N1CCC[C@H]1C(=O)N1CCC[C@H]1C(=O)N[C@@H](CO)C(N)=O` [Compound 18], the EC50 [1] was 0.214 nM, the “Rel. A (Relative Activity) on RIN-m5F” value [1] was 482.24% and the AUC(0-t) [2] was 3.01 µM·h. For the same compound, the Cmax [2] was 62.8 nM, the Tmax [2] was 16 h and the half-life [2] was 936 min. For the same compound, the Weight change ([3]; Table 6-1, 3 nmol/kg s.c. Q3D for 15 days) was −22.2 ± 0.89%, the Weight change ([3]; Table 6-1, 10 nmol/kg s.c. Q3D for 15 days) was −30.6 ± 1.26% and the Weight change ([3]; Table 6-1, 30 nmol/kg s.c. Q3D for 15 days) was −45.0 ± 1.52%. For the same compound, the LDL-C ([3]; Table 7-1, 3 nmol/kg) was 0.60 ± 0.043 mM, the “TC (total cholesterol)” value ([3]; Table 7-1, 3 nmol/kg) was 3.77 ± 0.234 mM and the “TG (plasma triglycerides)” value ([3]; Table 7-1, 3 nmol/kg) was 0.90 ± 0.027 mM. The LDL-C ([3]; Table 7-1, 30 nmol/kg) was 0.35 ± 0.036 mM, the “TC (total cholesterol)” value ([3]; Table 7-1, 30 nmol/kg) was 2.32 ± 0.161 mM and the “TG (plasma triglycerides)” value ([3]; Table 7-1, 30 nmol/kg) was 0.61 ± 0.041 mM. The “Blood sugar (fasting blood glucose)” value ([3]; Table 8-1, 3 nmol/kg) was 98.5 ± 9.17 mg/dL, the “Insulin (blood)” value ([3]; Table 8-1, 3 nmol/kg) was 21.2 ± 3.73 mIU/L and the “Human GLP-1R Rel. A (Relative Activity)” value [4] was 366.67%. For the same compound, the EC50 [4] was 0.012 nM, the EC50 [5] was 1.99 nM and the “Rel. A (Relative Activity) on 3T3-L1 adipocyte” value [5] was 191.34%.
In the case of `CC[C@H](C)[C@H](NC(=O)[C@H](Cc1ccccc1)NC(=O)[C@H](C)NC(=O)C(C)(C)NC(=O)[C@H](CCC(N)=O)NC(=O)[C@H](C)NC(=O)[C@H](CCCCNC(=O)COCCOCCNC(=O)COCCOCCNC(=O)CC[C@H](NC(=O)CCCCCCCCCCCCCCCCCCC(=O)O)C(=O)O)NC(=O)[C@H](CCCCN)NC(=O)[C@H](CC(=O)O)NC(=O)[C@H](CC(C)C)NC(=O)[C@](C)(CC(C)C)NC(=O)[C@@H](NC(=O)[C@H](CO)NC(=O)[C@H](Cc1ccc(O)cc1)NC(=O)[C@H](CC(=O)O)NC(=O)[C@H](CO)NC(=O)[C@@H](NC(=O)[C@](C)(Cc1ccccc1F)NC(=O)[C@@H](NC(=O)CNC(=O)[C@H](CCC(N)=O)NC(=O)C(C)(C)NC(=O)[C@@H](N)Cc1ccc(O)cc1)[C@@H](C)O)[C@@H](C)O)[C@@H](C)CC)C(=O)N[C@@H](CCC(=O)O)C(=O)N[C@@H](Cc1ccccc1)C(=O)N[C@@H](CC(C)C)C(=O)N[C@@H](CC(C)C)C(=O)N[C@@H](CCC(=O)O)C(=O)N[C@H](C(=O)NCC(=O)N1CCC[C@H]1C(=O)N[C@@H](CO)C(=O)N[C@@H](CO)C(=O)NC(C)(C)C(=O)N[C@@H](Cc1c[nH]cn1)C(=O)N1CCC[C@H]1C(=O)N1CCC[C@H]1C(=O)N1CCC[C@H]1C(=O)N[C@@H](CO)C(N)=O)[C@@H](C)O` [Compound 38] (H-Y[Aib]QGT[αMePhe(2-F)]TSDYSI[αMeL]LDKK([AEEA-AEEA-γGlu-C20 diacid])AQ[Aib]AFIEFLLETGPSS[Aib]HPPPS-NH2; N-terminus assumed), the EC50 [1] is reported as 0.173 nM, the “Rel. A (Relative Activity) on RIN-m5F” value [1] is reported as 596.53% and the AUC(0-t) [2] is reported as 3.1 µM·h. The Cmax [2] was 78.1 nM, the Tmax [2] was 16 h and the half-life [2] was 942 min. For the same compound, the Weight change ([3]; Table 6-2, 3 nmol/kg s.c. Q3D for 15 days) was −19.0 ± 1.30%, the Weight change ([3]; Table 6-2, 10 nmol/kg s.c. Q3D for 15 days) was −25.7 ± 2.26% and the LDL-C ([3]; Table 7-2, 3 nmol/kg) was 0.39 ± 0.025 mM. For the same compound, the “TC (total cholesterol)” value ([3]; Table 7-2, 3 nmol/kg) was 3.49 ± 0.151 mM, the “TG (plasma triglycerides)” value ([3]; Table 7-2, 3 nmol/kg) was 0.74 ± 0.019 mM and the LDL-C ([3]; Table 7-2, 10 nmol/kg) was 0.35 ± 0.053 mM. For the same compound, the “TC (total cholesterol)” value ([3]; Table 7-2, 10 nmol/kg) was 3.12 ± 0.186 mM, the “TG (plasma triglycerides)” value ([3]; Table 7-2, 10 nmol/kg) was 0.63 ± 0.051 mM and the “Blood sugar (fasting blood glucose)” value ([3]; Table 8-2, 3 nmol/kg) was 151.7 ± 8.46 mg/dL. The “Insulin (blood)” value ([3]; Table 8-2, 3 nmol/kg) was 24.9 ± 5.43 mIU/L, the “Human GLP-1R Rel. A (Relative Activity)” value [4] was 115.79% and the EC50 [4] was 0.038 nM. The EC50 [5] was 3.24 nM and the “Rel. A (Relative Activity) on 3T3-L1 adipocyte” value [5] was 117.42%.
